Source: publication PMC12285096, “Tirzepatide mitigates Stroke-Induced Blood-Brain barrier disruption by modulating Claudin-1 and C/EBP-α pathways” (Molecular Medicine, 2025)

How the values were obtained:
Claudin-1 [1] = assay: Claudin-1 expression in OGD/R-stimulated HBMVECs (real-time PCR, western blot); format: cell-based, human; details: for Claudin-1 expressions (mRNA): sh-C/EBP-α experiment, Fig. 9D
Method: (§1) 1 mL of RNAiso Plus solution was added to the pulverized rodent cerebral cortex samples or cellular material. Following complete homogenization, the liquid fraction was extracted after high-speed centrifugation. The overall RNA pellet was then washed with 75% ethanol, and the RNA was subsequently harvested for reverse transcription. These specific procedures were carried out in accordance with the instructions provided in the PrimeScript RT reagent Kit (TaKaRa, Japan). Real-time PCR detection was performed following the experimental protocols of the Applied Biosystems 7300 instrument. Gene expression levels were determined based on cycle threshold counts. Claudin-1 and C/EBP-α were analyzed in brain homogenates (right hemisphere: Sham, MCAO, MCAO + TZP) and HBMVECs (Control, […] lysis solution, composed of 1% protease inhibitor in RIPA buffer (Sigma-Aldrich, R0278), was introduced to samples, which were homogenized over ice for 30 min. The homogenate was centrifuged at 13,500 rpm for 10 min at 4 °C. Protein was quantified using the BCA assay kit (Sigma-Aldrich, BCA1), and 50 μg protein/lane was separated on 10% SDS-PAGE and transferred to PVDF in electrophoresis buffer at 200 mA for 2 h. The membrane was blocked with 5% skim milk in TBST for 1 h. Primary antibodies were incubated overnight at 4 °C: Claudin-1 (1:1000, Abcam, ab15098), C/EBP-α (1:1000, Santa Cruz Biotechnology, sc-166258), and GAPDH (1:2000, Sigma-Aldrich, A5441). HRP-conjugated secondary antibodies (1:5000, Santa Cruz, sc-2357) were incubated for 1 h. Bands were detected via ECL (Bio-Rad, 1705061), quantified with ImageJ, and normalized to GAPDH. HBMVECs were sourced from ATCC (USA). These cells were cultivated in a medium specifically designed for endothelial cultures, enriched with 10% FBS, and maintained in an incubator set at a temperature of 37 °C with 5% CO2. For OGD/R modeling, the culture medium was replaced with a serum-free, glucose-free medium, and then it was placed in a hypoxic environment (1% O2, 5% CO2, 94% N2) at a 37 °C incubator for 10 h. […]

C/EBP-α [2] = assay: C/EBP-α expression in mouse cortex (RT-PCR, western blot); format: in vivo; details: Fig. 4A, B
Method: 1 mL of RNAiso Plus solution was added to the pulverized rodent cerebral cortex samples or cellular material. Following complete homogenization, the liquid fraction was extracted after high-speed centrifugation. The overall RNA pellet was then washed with 75% ethanol, and the RNA was subsequently harvested for reverse transcription. These specific procedures were carried out in accordance with the instructions provided in the PrimeScript RT reagent Kit (TaKaRa, Japan). Real-time PCR detection was performed following the experimental protocols of the Applied Biosystems 7300 instrument. Gene expression levels were determined based on cycle threshold counts.
Claudin-1 and C/EBP-α were analyzed in brain homogenates (right hemisphere: Sham, MCAO, MCAO + TZP) and HBMVECs (Control, OGD/R, OGD/R + TZP). A lysis solution, composed of 1% protease inhibitor in RIPA buffer (Sigma-Aldrich, R0278), was introduced to samples, which were homogenized over ice for 30 min. The homogenate was centrifuged at 13,500 rpm for 10 min at 4 °C. Protein was quantified using the BCA assay kit (Sigma-Aldrich, BCA1), and 50 µg protein/lane was separated on 10% SDS-PAGE and transferred to PVDF in electrophoresis buffer at 200 mA for 2 h. The membrane was blocked with 5% skim milk in TBST for 1 h. […] Bands were detected via ECL (Bio-Rad, 1705061), quantified with ImageJ, and normalized to GAPDH.

C/EBP-α [3] = assay: C/EBP-α expression in OGD/R-stimulated HBMVECs (real-time PCR, western blot); format: cell-based, human; details: OGD/R + 50 and 100 nM TZP vs. OGD/R, Fig. 8A, B
Method: as §1, with “Primary antibodies were incubated overnight at 4 °C: Claudin-1 (1:1000, Abcam, ab15098), C/EBP-α (1:1000, Santa Cruz Biotechnology, sc-166258), and GAPDH (1:2000, Sigma-Aldrich, A5441). HRP-conjugated secondary antibodies (1:5000, Santa Cruz, sc-2357) were incubated for 1 h.” left out, “GAPDH.” for “GAPDH. HBMVECs were sourced from ATCC (USA). These cells were cultivated in a medium specifically designed for endothelial cultures, enriched with 10% FBS, and maintained in an incubator set at a temperature of 37 °C with 5% CO2. For OGD/R modeling, the culture medium was replaced with a serum-free, glucose-free medium, and then it was placed in a hypoxic environment (1% O2, 5% CO2, 94% N2) at a 37 °C incubator for 10 h.”

Claudin-1 [4] = assay: Claudin-1 expression in mouse cortex (RT-PCR, immunostaining); format: in vivo; details: for Claudin-1 levels (mRNA): C/EBP-α experiment, Fig. 5C; for Claudin-1 expressions in cortex tissue (mRNA, protein by immunostaining): Fig. 3A, B
Method: Mouse brain cortex samples were traditionally fixed in a 10% formaldehyde solution, embedded in paraffin, sectioned, and then dehydrated. Endogenous peroxidase activity was quenched by incubating the sections with a 3% hydrogen peroxide solution for 30 min. Antigen retrieval was carried out using ethylenediaminetetraacetic acid (EDTA) under pressure. After sealing for 30 min, slides were incubated overnight at 4 °C with primary antibodies specific for Claudin-1 (Abcam, USA), diluted at a ratio of 1:400. This incubation period was extended to ensure thorough binding. Subsequently, the slides were washed and incubated with secondary antibodies (1:400, Abcam, USA) for 15 min. Finally, the slides were developed using a DAB chromogenic substrate system, counterstained with hematoxylin, differentiated with an ethanol solution containing hydrochloric acid, subjected to a bluing step with running tap water, rinsed with deionized water, dehydrated, and covered with a protective cover slip. Visual documentation was obtained using a microscope (Zeiss, Germany). 1 mL of RNAiso Plus solution was added to the pulverized rodent cerebral cortex samples or cellular material. Following complete homogenization, the liquid fraction was extracted after high-speed centrifugation. The overall RNA pellet was then washed with 75% ethanol, and the RNA was subsequently harvested for reverse transcription. These specific procedures were carried out in accordance with the instructions provided in the PrimeScript RT reagent Kit (TaKaRa, Japan). Real-time PCR detection was performed following the experimental protocols of the Applied Biosystems 7300 instrument. Gene expression levels were determined based on cycle threshold counts.

MCAO mice [5] = assay: TTC staining, infarct volume in MCAO mice; format: in vivo, mouse; details: MCAO + TZP mice, 10 nmol/kg i.p., MCAO mice 38.5 ± 4.2%, mean ± SD, Fig. 1B
MCAO mice [6] = assay: Behavioral toxicity observation in the MCAO model; details: TZP 10 nmol/kg i.p. weekly
[7] = TZP group (sham-operated, 10 nmol/kg i.p. weekly, 8 weeks) vs. Sham

`CC[C@H](C)[C@H](NC(=O)[C@H](CC(C)C)NC(=O)[C@H](Cc1c[nH]c2ccccc12)NC(=O)[C@H](CCC(N)=O)NC(=O)[C@@H](NC(=O)[C@H](Cc1ccccc1)NC(=O)[C@H](C)NC(=O)[C@H](CCCCNC(=O)COCCOCCNC(=O)COCCOCCNC(=O)CC[C@H](NC(=O)CCCCCCCCCCCCCCCCCCC(=O)O)C(=O)O)NC(=O)[C@H](CCC(N)=O)NC(=O)[C@H](C)NC(=O)[C@@H](NC(=O)[C@H](CCCCN)NC(=O)[C@H](CC(=O)O)NC(=O)[C@H](CC(C)C)NC(=O)C(C)(C)NC(=O)[C@@H](NC(=O)[C@H](CO)NC(=O)[C@H](Cc1ccc(O)cc1)NC(=O)[C@H](CC(=O)O)NC(=O)[C@H](CO)NC(=O)[C@@H](NC(=O)[C@H](Cc1ccccc1)NC(=O)[C@@H](NC(=O)CNC(=O)[C@H](CCC(=O)O)NC(=O)C(C)(C)NC(=O)[C@@H](N)Cc1ccc(O)cc1)[C@@H](C)O)[C@@H](C)O)[C@@H](C)CC)[C@@H](C)CC)C(C)C)C(=O)N[C@@H](C)C(=O)NCC(=O)NCC(=O)N1CCC[C@H]1C(=O)N[C@@H](CO)C(=O)N[C@@H](CO)C(=O)NCC(=O)N[C@@H](C)C(=O)N1CCC[C@H]1C(=O)N1CCC[C@H]1C(=O)N1CCC[C@H]1C(=O)N[C@@H](CO)C(N)=O` [TZP, Tirzepatide] was tested, and the “Claudin-1 expressions (mRNA, protein)” value (Claudin-1 [1]; OGD/R + 50 and 100 nM TZP vs. OGD/R, Fig. 7A, B) was “notably enhanced”, the “Claudin-1 expressions (mRNA)” value (Claudin-1 [1]; OGD/R + TZP (100 nM) vs. OGD/R) was “remarkably elevated” and the “Claudin-1 expressions (mRNA)” value (Claudin-1 [1]; OGD/R + sh-C/EBP-α + TZP (100 nM) vs. OGD/R + TZP) was “strikingly restrained”. For the same compound, the “C/EBP-α levels in cortex tissues (mRNA, protein)” value (C/EBP-α [2]; MCAO + TZP vs. MCAO (markedly decreased), 10 nmol/kg i.p. weekly, 8 weeks) was “largely enhanced”, the “C/EBP-α levels in cortex tissues (mRNA, protein)” value (C/EBP-α [2]; [7]) was “notably elevated” and the “C/EBP-α levels (mRNA, protein)” value (C/EBP-α [3]) was “largely promoted”. The “Claudin-1 levels (mRNA)” value (Claudin-1 [4]; MCAO + C/EBP-α-/- + TZP vs. MCAO + TZP) was “strikingly repressed”, the “Claudin-1 levels (mRNA)” value (Claudin-1 [4]; MCAO + TZP WT mice vs. MCAO) was “sharply enhanced” and the “Claudin-1 expressions in cortex tissue (mRNA, protein by immunostaining)” value (Claudin-1 [4]; MCAO + TZP vs. MCAO (markedly diminished), 10 nmol/kg i.p. weekly, 8 weeks) was “strikingly enhanced”. For the same compound, the “Claudin-1 expressions in cortex tissue (mRNA, protein by immunostaining)” value (Claudin-1 [4]; [7]) was “remarkably enhanced”, the “Infarct volume (% of the ipsilateral hemisphere)” value (MCAO mice [5]) was 18.7 ± 3.1% and the Behavioral toxicity (MCAO mice [6]) was “no overt behavioral toxicity”.
